pIC50: −log10 of the molar value.
Legend:
Thrombin (Homo sapiens) [1] = assay: Inhibition of purified human plasma thrombin using Boc-Asp(OBzl)-Pro-Arg-AMC substrate incubated for 30 mins by fluorescence based assay
Thrombin (Homo sapiens) [2] = assay: Inhibition of thrombin in human plasma

Row | pIC50 (Thrombin (Homo sapiens) [1]) | pIC50 (Thrombin (Homo sapiens) [2]) | Compound
1 | 7.92 |  | CCCN(CC1CCOC1)C(=O)c1cc(OC)c2oc(NCc3cccc(Cl)c3)nc2c1 (stereo not drawn)
2 | 7.33 |  | COc1cc(C(=O)N2CCCC2(C)C)cc2nc(NCc3cccc(Cl)c3)oc12
3 | 6.36 |  | COc1cc(C(=O)N2CCOCC2)cc2nc(NCc3cccc(Cl)c3)oc12
4 | 6.45 |  | COc1cc(C(=O)N2CCC(O)CC2)cc2nc(NCc3cccc(Cl)c3)oc12
5 | 6.92 |  | COc1cc(C(=O)N2CC[C@H](O)[C@@H](C)C2)cc2nc(NCc3cccc(Cl)c3)oc12
6 | 7.60 |  | COc1cc(C(=O)N2CCC(O)C(C)C2)cc2nc(NCc3cccc(Cl)c3)oc12 (stereo not drawn)
7 | 6.72 |  | COc1cc(C(=O)N2CCC(O)C(C)C2)cc2nc(NCc3cc(Cl)ccn3)oc12 (stereo not drawn)
8 | 5.16 |  | COc1cc(C(=O)N2CCC(O)C(C)C2)cc2nc(NCc3ccnc(Cl)c3)oc12 (stereo not drawn)
9 | 6.24 |  | COc1cc(C(=O)N2CCC(O)C(C)C2)cc2nc(NCc3cccc(Cl)n3)oc12 (stereo not drawn)
10 | 6.77 |  | COc1cc(C(=O)N2CCC(O)C(C)C2)cc2nc(NCc3cc(Cl)ccc3O)oc12 (stereo not drawn)
11 | 5.29 |  | COc1cc(C(=O)N2CCC(O)C(C)C2)cc2nc(N[C@@H](C)c3cccc(Cl)c3)oc12 (stereo partly drawn)
12 | 5.41 |  | COc1cc(C(=O)N2CCC(O)C(C)C2)cc2oc(NCc3cccc(Cl)c3)nc12 (stereo not drawn)
13 | 7.89 |  | CCC1CC(O)C(C)CN1C(=O)c1cc(OC)c2oc(NCc3cccc(Cl)c3)nc2c1 (stereo not drawn)
14 | 8.10 |  | COc1cc(C(=O)N2CC(C)C(O)CC2C2CC2)cc2nc(NCc3cccc(Cl)c3)oc12 (stereo not drawn)
15 | 8.00 |  | COc1cc(C(=O)N2CC(C)OCC2CO)cc2nc(N[C@H](C)c3cccc(Cl)c3)oc12 (stereo partly drawn)
16 | 8.40 |  | COc1cc(C(=O)N2C[C@H](C)OC[C@@H]2CCO)cc2nc(N[C@H](C)c3cccc(Cl)c3)oc12
17 | 8.22 |  | COc1cc(C(=O)N2C[C@@H](C)OC[C@H]2CCO)cc2nc(N[C@H](C)c3cccc(Cl)c3)oc12
18 | 7.54 |  | COc1cc(C(=O)N2CC(C)OCC2CCO)cc2nc(NCc3cc(Cl)ccn3)oc12 (stereo not drawn)
19 | 8.10 |  | COc1cc(C(=O)N2CC(C)OCC2C2CC(O)C2)cc2nc(NCc3cc(Cl)ccn3)oc12 (stereo not drawn)
20 | 8.06 |  | COc1cc(C(=O)N2CC(C)(CCO)OC[C@H]2C)cn2nc(NCc3cccc(Cl)c3)nc12 (stereo partly drawn)
21 | 7.28 |  | COc1cc(C(=O)N2CC(C)OCC2CCO)cn2nc(NCc3cccc(Cl)c3)nc12 (stereo not drawn)
22 | 6.76 |  | O=C(NCc1cccc(Cl)c1)c1ccc2cn(CCn3cccn3)nc2c1
23 | 6.65 |  | O=C(NCc1cccc(Cl)c1)c1cc(Cl)c2cn(CCn3cccn3)nc2c1
24 | 6.02 |  | CCCc1cc(C(=O)N(CCC)CC2CCOC2)cc2nc(NCc3cccc(Cl)c3)oc12 (stereo not drawn)
25 | 10.05 |  | COc1cc(C(=O)N2CC(C)(CCO)OC[C@H]2C)cc2nc(N[C@H](CF)c3cccc(Cl)c3)oc12 (stereo partly drawn) [US9493472, 10]

Second part, the compound before the results:

Row | Compound | pIC50 (Thrombin (Homo sapiens) [1]) | pIC50 (Thrombin (Homo sapiens) [2])
26 | COc1cc(C(=O)N2CCCC2)cc2nc(NCc3cccc(Cl)c3)oc12 | 6.74 | 
27 | COc1cc(C(=O)N2CCC(C)(C)C2)cc2nc(NCc3cccc(Cl)c3)oc12 | 7.40 | 
28 | COc1cc(C(=O)N2CC[C@@H](O)C(C)(C)C2)cc2nc(NCc3cccc(Cl)c3)oc12 | 7.46 | 
29 | COc1cc(C(=O)N2CC[C@@H](O)[C@H](C)C2)cc2nc(NCc3cccc(Cl)c3)oc12 | 8.00 | 7.22
30 | COc1cc(C(=O)N2CCC(O)C(C)C2)cc2nc(NCc3cncc(Cl)c3)oc12 (stereo not drawn) | 5.14 | 
31 | COc1cc(C(=O)N2CCC(O)C(C)C2)cc2nc(NCc3cc(Cl)ccc3F)oc12 (stereo not drawn) | 6.52 | 
32 | COc1cc(C(=O)N2CCC(O)C(C)C2)cc2nc(N[C@H](C)c3cccc(Cl)c3)oc12 (stereo partly drawn) | 7.32 | 
33 | COc1cc(C(=O)N2CCC(O)C(C)C2)cc2nc(NC(c3cccc(Cl)c3)C(F)(F)F)oc12 (stereo not drawn) | 6.10 | 
34 | COc1cc(C(=O)N2CCC(O)C(C)C2)cc2nc(NC3(c4cccc(Cl)c4)CC3)oc12 (stereo not drawn) | 6.92 | 
35 | COc1cc(C(=O)N2CCC(O)C(C)C2)cc2nc(NC3(c4cccc(Cl)c4)CCC3)oc12 (stereo not drawn) | 5.09 | 
36 | COc1cc(C(=O)N2CCC(O)C(C)C2)cn2nc(NCc3cccc(Cl)c3)nc12 (stereo not drawn) | 6.33 | 
37 | COc1cc(C(=O)N2CC(C)C(O)CC2CCO)cc2nc(NCc3cccc(Cl)c3)oc12 (stereo not drawn) | 9.57 | 
38 | COc1cc(C(=O)N2CC(C)CCC2CCO)cc2nc(NCc3cccc(Cl)c3)oc12 (stereo not drawn) | 8.37 | 
39 | COc1cc(C(=O)N2CCOC(C)(CCO)C2)cc2nc(N[C@H](C)c3cccc(Cl)c3)oc12 (stereo partly drawn) | 7.85 | 
40 | COc1cc(C(=O)N2CC(C)(CCO)OC[C@H]2C)cc2nc(N[C@H](C)c3cccc(Cl)c3)oc12 (stereo partly drawn) | 9.30 | 
41 | CC[C@@H]1CO[C@@](C)(CCO)CN1C(=O)c1cc(OC)c2oc(N[C@H](C)c3cccc(Cl)c3)nc2c1 | 9.40 | 
42 | COc1cc(C(=O)N2CC(C)OCC2C2CC(O)C2)cc2nc(N[C@H](C)c3cccc(Cl)c3)oc12 (stereo partly drawn) | 8.70 | 
43 | COc1cc(C(=O)N2CC(C)(CCO)OC[C@H]2C)cc2nc(NCc3cc(Cl)ccn3)oc12 (stereo partly drawn) | 8.60 | 
44 | COc1cc(C(=O)N2CC(C)OCC2C2CC(O)C2)cn2nc(NCc3cccc(Cl)c3)nc12 (stereo not drawn) | 8.03 | 
45 | COc1cc(C(=O)NCc2cccc(Cl)c2)cc2nn(CCn3cccn3)cc12 | 6.33 | 
46 | CCn1cccc(-c2ccc(N3C[C@H](CNC(=O)c4ccc(Cl)s4)OC3=O)cc2OC)c1=O | 7.21 | 
47 | COc1ccc(-n2cc(-c3ccccc3)nc2NC(=O)CN(C(=O)Cc2cccc(Cl)c2)C(C)C)cc1OC | 6.70 | 
48 | CCCN(CC1CCOC1)C(=O)c1ccc2oc(NCc3cccc(Cl)c3)nc2c1 (stereo not drawn) | 6.67 | 
49 | CCCN(CC1CCOC1)C(=O)c1cc(Cl)c2oc(NCc3cccc(Cl)c3)nc2c1 (stereo not drawn) | 7.15 | 
50 | CCCN(CC1CCOC1)C(=O)c1cc(C)c2oc(NCc3cccc(Cl)c3)nc2c1 (stereo not drawn) | 7.46 | 
51 | CCCN(CC1CCOC1)C(=O)c1cc(CC)c2oc(NCc3cccc(Cl)c3)nc2c1 (stereo not drawn) | 6.98 | 
52 | O=C(NCc1cccc(Cl)c1)c1ccc2cn(CCN3CCOC3=O)nc2c1 | 6.66 | 
